From patent US20240400553A1, “AMINE BASED MATRIPTASE 2 INHIBITORS AND USES THEREOF” (Disc Medicine, Inc., priority 2023, published 2024) come the findings set out here.

Bounds are passed on as bounds.

The first assay addresses T1, Human Recombinant Matriptase 2 (Homo sapiens, UniProt Q8IU80).
T1 construct: made in house
T1 sequence (Q8IU80 1-811): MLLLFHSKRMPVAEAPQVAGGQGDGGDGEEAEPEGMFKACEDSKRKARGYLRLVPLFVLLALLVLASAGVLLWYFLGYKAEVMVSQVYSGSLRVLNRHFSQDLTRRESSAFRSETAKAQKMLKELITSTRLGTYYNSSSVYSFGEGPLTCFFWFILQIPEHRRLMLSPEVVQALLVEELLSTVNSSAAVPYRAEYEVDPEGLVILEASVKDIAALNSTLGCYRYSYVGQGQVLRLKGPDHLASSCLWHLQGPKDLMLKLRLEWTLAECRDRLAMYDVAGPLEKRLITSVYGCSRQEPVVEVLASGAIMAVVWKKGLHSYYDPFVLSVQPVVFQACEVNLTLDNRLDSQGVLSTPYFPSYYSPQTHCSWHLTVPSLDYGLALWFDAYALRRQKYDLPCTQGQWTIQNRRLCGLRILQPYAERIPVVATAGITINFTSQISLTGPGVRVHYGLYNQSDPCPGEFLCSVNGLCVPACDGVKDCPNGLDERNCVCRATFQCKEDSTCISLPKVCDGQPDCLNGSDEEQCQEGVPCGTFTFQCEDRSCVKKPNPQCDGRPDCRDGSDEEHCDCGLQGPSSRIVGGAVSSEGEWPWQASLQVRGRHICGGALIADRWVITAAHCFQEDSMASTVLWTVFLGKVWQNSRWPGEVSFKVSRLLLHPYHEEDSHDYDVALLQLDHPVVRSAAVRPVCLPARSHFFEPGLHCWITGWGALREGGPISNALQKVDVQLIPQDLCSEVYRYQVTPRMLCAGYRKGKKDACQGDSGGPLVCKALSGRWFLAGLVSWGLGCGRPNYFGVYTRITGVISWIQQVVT
Nature of the assay: Matriptase 2 inhibition, fluorescence based assay (Method I). In kind it is biochemical. The following applies: Table A; Ki of Matriptase-2; read-out: Mat-2 Ki. Put shortly: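 Fluorogenic readout (Ex 360/Em 480 nm) taken 60 min after adding 62 μM Boc-Gln-Ala-Arg-AMC, following 30-min enzyme–compound preincubation at 25 °C. Conditions: 3.5 nM in-house enzyme, pH 7.5 Tris/NaCl/gelatin buffer, 1% DMSO; percent inhibition versus concentration fitted by variable-slope sigmoidal regression.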
Broadly, the Ki is a dissociation constant, usually derived from enzyme kinetics or from competition with a known ligand. Regarding `CN(c1cc(Cn2c(C(=O)O)cc3ccc(CN)nc32)c2ccccc2c1)S(=O)(=O)Cc1ccccc1` [Compound 109, 6-(aminomethyl)-1-{[3-(N-methylphenylmeth-anesulfonamido)naph-thalen-1-yl]methyl}-1H-pyrrolo[2,3-b]pyridine-2-carboxylic acid], the Ki was in the range of 100 to 500 nM.

For `CN(C)CCOC(=O)c1cc2ccc(CN)nc2n1Cc1cc(NS(=O)(=O)Cc2ccccc2)cc2ccccc12` [Compound 49, 2-(dimethylamino)ethyl 6-(aminomethyl)-1-{[3-(phenylmethanesulfon-amido)naphthalen-1-yl]-methyl}-1H-pyrrolo[2,3-b]pyridine-2-carboxylate], the Ki was not above 100 nM.

`NCc1ccc2cc(C(=O)OCc3cncn3CC(F)(F)F)n(Cc3cc(NS(=O)(=O)Cc4ccccc4)cc4ccccc34)c2n1` [Compound 103, [1-(2,2,2-trifluoroethyl)-1H-imidazol-5-yl]methyl 6-(aminomethyl)-1-{[3-(phenylmethanesulfon-amido)naphthalen-1-yl]-methyl}-1H-pyrrolo[2,3-b]pyridine-2-carboxylate]: the Ki lay in the range of 100 to 500 nM. On the same count and under the same terms, then `CN1CCC(CCOC(=O)c2cc3ccc(CN)nc3n2Cc2cc(NS(=O)(=O)Cc3cccs3)cc3ccccc23)CC1` [Compound 150, 2-(1-methylpiperidin-4-yl)ethyl 6-(aminometh-yl)-1-({3-[(thiophen-2-yl)methanesulfonamido]-naphthalen-1-yl}methyl)-1H-pyrrolo[2,3-b]pyr-idine-2-carboxylate], with not above 100 nM; and `C[C@@H](c1ccccc1)S(=O)(=O)Nc1cc(Cn2c(C(=O)O)cc3ccc(CN)nc32)c2ccccc2c1` (racemic) [Compound 73, 6-(aminomethyl)-1-{[3-(1-phenylethanesulfon-amido)naphthalen-1-yl]-methyl}-1H-pyrrolo[2,3-b]pyridine-2-carboxylic acid], with not above 100 nM. Turning to `CC(C)(C)n1cnc(COC(=O)c2cc3ccc(CN)nc3n2Cc2cc(NS(=O)(=O)Cc3ccccc3)cc3ccccc23)c1` [Compound 96, (1-tert-butyl-1H-imid-azol-4-yl)methyl 6-(aminomethyl)-1-{[3-(phenylmethanesulfon-amido)naphthalen-1-yl]-methyl}-1H-pyrrolo[2,3-b]pyridine-2-carboxylate], the Ki was 100 to 500 nM. Still for that read-out and setting: the figure for `CC(C)(C)n1nccc1COC(=O)c1cc2ccc(CN)nc2n1Cc1cc(NS(=O)(=O)Cc2ccccc2)cc2ccccc12` [Compound 110] is 100 to 500 nM; for `NCc1ccc2cc(C(=O)OCCN3CCNCC3)n(Cc3cc(NS(=O)(=O)Cc4ccsc4)cc4ccccc34)c2n1` [Compound 156, 2-(piperazin-1-yl)ethyl 6-(aminomethyl)-1-({3-[(thiophen-3-yl)methane-sulfonamidoJnaphthalen-1-yl}methyl)-1H-pyr-rolo[2,3-b]pyridine-2-carboxylate] it is not above 100 nM. Still for that read-out and setting: the figure for `Cc1cccc(C)c1CS(=O)(=O)Nc1cc(Cn2c(C(=O)OC[C@H]3CNCCO3)cc3ccc(CN)nc32)c2ccccc2c1` [Compound 182, [(2R)-morpholin-2-yl]-methyl 6-(aminometh-yl)-1-({3-[(2,6-dimeth-ylphenyl)methanesulfon-amido]naphthalen-1-yl}-methyl)-1H-pyrrolo[2,3-b]pyridine-2-carboxylate] is not above 100 nM; for `NCc1ccc2cc(C(=O)OCC34CC(F)(C3)C4)n(Cc3cc(NS(=O)(=O)Cc4ccccc4)cc4ccccc34)c2n1` [Compound 117, {3-fluorobicyclo[1.1.1]-pentan-1-yl}methyl 6-(aminomethyl)-1-{[3-(phenylmethanesulfon-amido)naphthalen-1-yl]-methyl}-1H-pyrrolo[2,3-b]pyridine-2-carboxylate] it is 500 to 3000 nM. The same measure, in the same setting: then `N#Cc1ccc(OC(=O)c2cc3ccc(CN)nc3n2Cc2cc(NS(=O)(=O)Cc3ccccc3)cc3ccccc23)cc1` [Compound 125, 4-cyanophenyl 6-(aminomethyl)-1-{[3-(phenylmethanesulfon-amido)naphthalen-1-yl]-methyl}-1H-pyrrolo-[2,3-b]pyridine-2-car-boxylate], with 500 to 3000 nM.

Still in this assay, the particulars now being: Table A; Ki of Matriptase-2 given as class symbols; read-out: Mat-2 Ki.
Consider `COCCN1CCN(CCS(=O)(=O)Nc2cc(Cn3c(C(=O)O)cc4ccc(CN)nc43)c3ccccc3c2)CC1` [Compound 234, 6-(aminomethyl)-1-[(3-{2-[4-(2-methoxyethyl)-piperazin-1-yl]ethane-sulfonamido}naphthalen-1-yl)methyl]-1H-pyr-rolo[2,3-b]pyridine-2-carboxylic acid], for which the Ki lay in the range of 100 to 500 nM. On the same count and under the same terms, then `CC(C)OC(=O)c1cc2ccc(CN)nc2n1Cc1cc(NS(=O)(=O)CC[C@@H]2CCCN2)cc2ccccc12` [Compound 270, propan-2-yl 6-(amino-methyl)-1-[(3-{2-[(2S)-pyrrolidin-2-yl]ethane-sulfonamido}naphthalen-1-yl)methyl]-1H-pyrrolo-[2,3-b]pyridine-2-car-boxylate], with 500 to 3000 nM; and `Cc1ccccc1CS(=O)(=O)Nc1cc(Cn2c(C(=O)OCC3CCN(C)CC3)cc3ccc(CN)nc32)c2ccccc2c1` [Compound 204], with not above 100 nM; and `NCc1ccc2cc(C(=O)O)n(Cc3cc(NS(=O)(=O)C[C@H]4CNCCO4)cc4ccccc34)c2c1` (racemic) [Compound 391, 6-(aminomethyl)-1-({3-[(morpholin-2-l)methane-sulfonamido]naphthalen-1-yl}methyl)-1H-indole-2-carboxylic acid], with 100 to 500 nM. Still for that read-out and setting: then `NCc1ccc2cc(-c3ncn[nH]3)n(Cc3cc(NS(=O)(=O)Cc4ccccc4)cc4ccccc34)c2n1` [Compound 352], with not above 100 nM. As for `CC(c1ccccc1)S(=O)(=O)Nc1cc(Cn2c(C(=O)OCC3CCN(C)CC3)cc3ccc(CN)cc32)c2ccccc2c1` (racemic) [Compound 380, (1-methylpiperidin-4-yl)-methyl 6-(aminomethyl)-1-{[3-(1-phenylethane-sulfonamido)naphthalen-1-yl]methyl}-1H-indole-2-carboxylate], the Ki is not above 100 nM. Still for that read-out and setting: then `CN1CCO[C@@H](COC(=O)Nc2cc(Cn3c(C(=O)O)cc4ccc(CN)nc43)c3ccccc3c2)C1` (racemic) [Compound 337, 6-(aminomethyl)-1-{[3-({[(4-methylmorpholin-2-yl)methoxy]carbon-yl}amino)naphthalen-1-yl]methyl}-1H-pyrrolo-[2,3-b]pyridine-2-car-boxylic acid], with 100 to 500 nM. Consider `NCc1ccc2cc(C(=O)O)n(Cc3cc(NS(=O)(=O)Cc4c(Cl)cccc4Cl)cc4ccccc34)c2n1` [Compound 251, 6-(aminomethyl)-1-({3-[(2,6-dichlorophenyl)-methanesulfonamido]-naphthalen-1-yl}methyl)-1H-pyrrolo[2,3-b]pyr-idine-2-carboxylic acid], for which the Ki fell in the range of 500 to 3000 nM.

Turning to `CC(C)(C)OC(=O)N1CCC(CCS(=O)(=O)Nc2cc(Cn3c(C(=O)O)cc4ccc(CN)nc43)c3ccccc3c2)CC1` [Compound 274, 6-(aminomethyl)-1-{[3-(2-{1-[(tert-butoxy)car-bonyl]piperidin-4-yl}-ethanesulfonamido)naph-thalen-1-yl]methyl}-1H-pyrrolo[2,3-b]pyridine-2-carboxylic acid], the Ki lay in the range of 500 to 3000 nM. On the same count and under the same terms, then `NCc1ccc2cc(C(=O)O)n(Cc3cc(NS(=O)(=O)Cc4ccccc4C(F)(F)F)cc4ccccc34)c2n1` [Compound 225, 6-(aminomethyl)-1-[(3-{[2-(trifluoromethyl)-phenyl]methanesulfon-amido}naphthalen-1-yl)methyl]-1H-pyrrolo-[2,3-b]pyridine-2-car-boxylic acid], with 100 to 500 nM. Same read-out and setting: the figure for `CNC(=O)c1cc2ccc(CN)nc2n1Cc1cc(NS(=O)(=O)CC2CCNCC2)cc2ccccc12` [Compound 215, 6-(aminomethyl)-N-methyl-1-({3-[(piperi-din-4-yl)methanesulfon-amido]naphthalen-1-yl}-methyl)-1H-pyrrolo[2,3-b]pyridine-2-carboxamide] is 100 to 500 nM; for `CN1CCC(COC(=O)c2cc3ccc(CN)nc3n2Cc2cc(NS(=O)(=O)Cc3ccccc3C(F)(F)F)cc3ccccc23)CC1` [Compound 209, (1-methylpiperidin-4-yl)-methyl 6-(aminomethyl)-1-[(3-{[2-(trifluorometh-yl)phenyl]methanesul-fonamido}naphthalen-1-yl)methyl]-1H-pyrrolo-[2,3-b]pyridine-2-car-boxylate] it is not above 100 nM.

The assay is the same for the next values; noted with them: Table B; Human Recombinant Matriptase 2, 3.5 nM enzyme, 62 μM substrate, 30 mins preincubation; read-out: Mean Ki.
As for `CN1CCC(CCOC(=O)c2cc3ccc(CN)nc3n2Cc2cc(NS(=O)(=O)Cc3ccccc3)cc3c2CCCC3)CC1` [Compound 2.15], the Ki was not above 100 nM. On the same count and under the same terms, then `CN1CC(CCOC(=O)c2cc3ccc(CN)nc3n2Cc2cc(NS(=O)(=O)Cc3ccccc3)cc3ccccc23)CC1=O` (stereo not shown) [Compound 2.7], with not above 100 nM.
